The source made the active and inactive calls. The calls are words filed in the database; no cut-off is given here.
How the values were obtained:
NCI-H226 = assay: Growth inhibition of human NCI-H226 cells after 48 hrs by SRB assay; type: functional; settings: NCI-H226, 48 h
TK-10 = assay: Growth inhibition of human TK10 cells after 48 hrs by SRB assay; type: functional; settings: TK-10, 48 h
LOX IMVI = assay: Growth inhibition of human LOXIMVI cells after 48 hrs by SRB assay; type: functional
SNB-75 = assay: Growth inhibition of human SNB75 cells after 48 hrs by SRB assay; type: functional; settings: SNB-75, 48 h
MOLT-4 = assay: Growth inhibition of human MOLT4 cells after 48 hrs by SRB assay; type: functional; settings: MOLT-4, 48 h
SF-539 = assay: Growth inhibition of human SF539 cells after 48 hrs by SRB assay; type: functional; settings: SF-539, 48 h
SK-MEL-5 = assay: Growth inhibition of human SK-MEL-5 cells after 48 hrs by SRB assay; type: functional; settings: SK-MEL-5, 48 h
SR = assay: Growth inhibition of human SR cells after 48 hrs by SRB assay; type: functional
A549 = assay: Growth inhibition of human A549 cells after 48 hrs by SRB assay; type: functional; settings: A549, 48 h
HOP-62 = assay: Growth inhibition of human HOP62 cells after 48 hrs by SRB assay; type: functional; settings: HOP-62, 48 h
SF-268 = assay: Growth inhibition of human SF268 cells after 48 hrs by SRB assay; type: functional; settings: SF-268, 48 h
OVCAR-5 = assay: Growth inhibition of human OVCAR5 cells after 48 hrs by SRB assay; type: functional; settings: OVCAR-5, 48 h
NCI/ADR-RES = assay: Growth inhibition of human NCI/ADR-RES cells after 48 hrs by SRB assay; type: functional
BT-549 = assay: Growth inhibition of human BT549 cells after 48 hrs by SRB assay; type: functional; settings: BT-549, 48 h
NCI-H522 = assay: Growth inhibition of human NCI-H522 cells after 48 hrs by SRB assay; type: functional; settings: NCI-H522, 48 h
MCF7 = assay: Growth inhibition of human MCF7 cells after 48 hrs by SRB assay; type: functional; settings: MCF7, 48 h
UACC-257 = assay: Growth inhibition of human UACC257 cells after 48 hrs by SRB assay; type: functional; settings: UACC-257, 48 h
T47D = assay: Growth inhibition of human T47D cells after 48 hrs by SRB assay; type: functional
SK-MEL-28 = assay: Growth inhibition of human SK-MEL-28 cells after 48 hrs by SRB assay; type: functional; settings: SK-MEL-28, 48 h
K562 [1] = assay: Cell cycle arrest in human K562 cells assessed as accumulation at G2/M phase at 140 uM after 24 hrs using propidium iodide staining by flow cytometry; type: functional, cell-based
[2] = Growth inhibition of human Hs 578T cells after 48 hrs by SRB assay; type: functional
HL-60(TB) = assay: Growth inhibition of human HL-60(TB) cells after 48 hrs by SRB assay; type: functional; settings: HL-60, 48 h
K562 [3] = assay: Cell cycle arrest in human K562 cells assessed as accumulation at S phase at 140 uM after 24 hrs using propidium iodide staining by flow cytometry; type: functional, cell-based
NCI-H460 = assay: Growth inhibition of human NCI-H460 cells after 48 hrs by SRB assay; type: functional; settings: NCI-H460, 48 h
PC-3 = assay: Growth inhibition of human PC3 cells after 48 hrs by SRB assay; type: functional; settings: PC-3, 48 h
MDA-MB-435 = assay: Growth inhibition of human MDA-MB-435 cells after 48 hrs by SRB assay; type: functional; settings: MDA-MB-435, 48 h
RXF 393 = assay: Growth inhibition of human […] cells after 48 hrs by SRB assay; type: functional; settings: RXF 393, 48 h
Malme-3M = assay: Growth inhibition of human MALME-3M cells after 48 hrs by SRB assay; type: functional
NCI-H322M = assay: Growth inhibition of human NCI-H322M cells after 48 hrs by SRB assay; type: functional
UACC-62 = assay: Growth inhibition of human UACC62 cells after 48 hrs by SRB assay; type: functional; settings: UACC-62, 48 h
HCC 2998 = assay: Growth inhibition of human HCC2998 cells after 48 hrs by SRB assay; type: functional; settings: HCC 2998, 48 h
RPMI-8226 = assay: Growth inhibition of human RPMI8226 cells after 48 hrs by SRB assay; type: functional; settings: RPMI-8226, 48 h
M14 = assay: Growth inhibition of human M14 cells after 48 hrs by SRB assay; type: functional; settings: M14, 48 h
NCI-H23 = assay: Growth inhibition of human NCI-H23 cells after 48 hrs by SRB assay; type: functional; settings: NCI-H23, 48 h
SW-620 = assay: Growth inhibition of human SW620 cells after 48 hrs by SRB assay; type: functional; settings: SW-620, 48 h
A498 = assay: Growth inhibition of human A498 cells after 48 hrs by SRB assay; type: functional; settings: A498, 48 h
SF-295 = assay: Growth inhibition of human SF295 cells after 48 hrs by SRB assay; type: functional; settings: SF-295, 48 h
IGROV-1 = assay: Growth inhibition of human IGROV1 cells after 48 hrs by SRB assay; type: functional; settings: IGROV-1, 48 h
OVCAR-3 = assay: Growth inhibition of human OVCAR-3 cells after 48 hrs by SRB assay; type: functional; settings: OVCAR-3, 48 h
DU-145 = assay: Growth inhibition of human DU145 cells after 48 hrs by SRB assay; type: functional; settings: DU-145, 48 h
SK-MEL-2 = assay: Growth inhibition of human SK-MEL-2 cells after 48 hrs by SRB assay; type: functional; settings: SK-MEL-2, 48 h
MDA-MB-231 = assay: Growth inhibition of human MDA-MB-231 cells after 48 hrs by SRB assay; type: functional; settings: MDA-MB-231, 48 h
CAKI-1 = assay: Growth inhibition of human Caki1 cells after 48 hrs by SRB assay; type: functional; settings: CAKI-1, 48 h
ACHN = assay: Growth inhibition of human ACHN cells after 48 hrs by SRB assay; type: functional
SK-OV-3 = assay: Growth inhibition of human SKOV3 cells after 48 hrs by SRB assay; type: functional; settings: SK-OV-3, 48 h
K562 [4] = assay: Growth inhibition of human K562 cells after 48 hrs by SRB assay; type: functional; settings: K562, 48 h
HOP-92 = assay: Growth inhibition of human HOP92 cells after 48 hrs by SRB assay; type: functional; settings: HOP-92, 48 h
EKVX = assay: Growth inhibition of human EKVX cells after 48 hrs by SRB assay; type: functional
OVCAR-4 = assay: Growth inhibition of human OVCAR4 cells after 48 hrs by SRB assay; type: functional; settings: OVCAR-4, 48 h
SN12C = assay: Growth inhibition of human SN12C cells after 48 hrs by SRB assay; type: functional
COLO 205 = assay: Growth inhibition of human COLO205 cells after 48 hrs by SRB assay; type: functional; settings: COLO 205, 48 h
HCT-116 = assay: Growth inhibition of human HCT116 cells after 48 hrs by SRB assay; type: functional; settings: HCT-116, 48 h
U-251 = assay: Growth inhibition of human U251 cells after 48 hrs by SRB assay; type: functional; settings: U-251, 48 h
HT-29 = assay: Growth inhibition of human HT-29 cells after 48 hrs by SRB assay; type: functional; settings: HT-29, 48 h
786-0 = assay: Growth inhibition of human 786-0 cells after 48 hrs by SRB assay; type: functional; settings: 786-0, 48 h
KM12 = assay: Growth inhibition of human KM12 cells after 48 hrs by SRB assay; type: functional; settings: KM12, 48 h
HCT-15 = assay: Growth inhibition of human HCT15 cells after 48 hrs by SRB assay; type: functional; settings: HCT-15, 48 h
SNB-19 = assay: Growth inhibition of human SNB19 cells after 48 hrs by SRB assay; type: functional; settings: SNB-19, 48 h
UO-31 = assay: Growth inhibition of human UO31 cells after 48 hrs by SRB assay; type: functional; settings: UO-31, 48 h
OVCAR-8 = assay: Growth inhibition of human OVCAR8 cells after 48 hrs by SRB assay; type: functional; settings: OVCAR-8, 48 h
[5] = read-out: LC50 (the source's name)

Compound: O=C(Nc1cc(C(F)(F)F)ccc1F)Nc1n[nH]c2ccccc12
- GI50 (NCI-H226): > 100 µM
- GI50 (TK-10): > 100 µM
- GI50 (LOX IMVI): > 100 µM
- GI50 (SNB-75): 40.1 µM
- GI50 (MOLT-4): > 100 µM
- GI50 (SF-539): > 100 µM
- GI50 (SK-MEL-5): > 100 µM
- GI50 (SR): 55.4 µM
- GI50 (A549): > 100 µM
- GI50 (HOP-62): > 100 µM
- GI50 (SF-268): > 100 µM
- GI50 (OVCAR-5): > 100 µM
- GI50 (NCI/ADR-RES): > 100 µM
- GI50 (BT-549): > 100 µM
- GI50 (NCI-H522): > 100 µM
- GI50 (MCF7): 18.2 µM
- GI50 (UACC-257): > 100 µM
- GI50 (T47D): 215 nM
- TGI (T47D): > 100 µM
- CC50 (T47D; [5]): > 100 µM
- GI50 (SK-MEL-28): > 100 µM
- Activity (K562 [1]): Active
- GI50 [2]: > 100 µM
- GI50 (HL-60(TB)): > 100 µM
- Activity (K562 [3]): Active
- GI50 (NCI-H460): > 100 µM
- GI50 (PC-3): > 100 µM
- GI50 (MDA-MB-435): > 100 µM
- GI50 (RXF 393): > 100 µM
- GI50 (Malme-3M): > 100 µM
- GI50 (NCI-H322M): > 100 µM
- GI50 (UACC-62): > 100 µM
- GI50 (HCC 2998): > 100 µM
- GI50 (RPMI-8226): > 100 µM
- GI50 (M14): > 100 µM
- GI50 (NCI-H23): > 100 µM
- GI50 (SW-620): > 100 µM
- GI50 (A498): > 100 µM
- GI50 (SF-295): > 100 µM
- GI50 (IGROV-1): 758 nM
- TGI (IGROV-1): > 100 µM
- CC50 (IGROV-1; [5]): > 100 µM
- GI50 (OVCAR-3): > 100 µM
- GI50 (DU-145): > 100 µM
- GI50 (SK-MEL-2): > 100 µM
- GI50 (MDA-MB-231): > 100 µM
- GI50 (CAKI-1): > 100 µM
- GI50 (ACHN): > 100 µM
- GI50 (SK-OV-3): > 100 µM
- GI50 (K562 [4]): > 100 µM
- GI50 (HOP-92): > 100 µM
- GI50 (EKVX): > 100 µM
- GI50 (OVCAR-4): > 100 µM
- GI50 (SN12C): > 100 µM
- GI50 (COLO 205): > 100 µM
- GI50 (HCT-116): > 100 µM
- GI50 (U-251): > 100 µM
- GI50 (HT-29): > 100 µM
- GI50 (786-0): > 100 µM
- GI50 (KM12): > 100 µM
- GI50 (HCT-15): > 100 µM
- GI50 (SNB-19): > 100 µM
- GI50 (UO-31): > 100 µM
- GI50 (OVCAR-8): > 100 µM

Reference: ChEMBL document CHEMBL1152860, “Synthesis and antiproliferative activity of 3-amino-N-phenyl-1H-indazole-1-carboxamides” (2009)
